Measured values from ChEMBL document CHEMBL1201862, “PubChem BioAssay data set” (2004).
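Dose response: 5 concentrations. Exposure: 48 h. Format: 96-well plates. Endpoint: linear interpolation; highest concentration if not reached. Abbreviation: GI50, concentration required for 50% inhibition of growth.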 Calls of active or inactive are those of the source. Cut-off read from the data, not from the text of the source: active = GI50 up to about 1.1 µM and inactive = higher.

Assays:
Assay in all cases: NCI-60 cell line screen, 48 h
A498 = system: A498
DMS-273 = system: DMS-273
HL-60 = system: HL-60
HOP-18 = system: HOP-18
HOP-92 = system: HOP-92
LXFL 529 = system: LXFL 529
M14 = system: M14
OVCAR-4 = system: OVCAR-4
OVCAR-5 = system: OVCAR-5
RXF 393 = system: RXF 393
SF-295 = system: SF-295
SNB-78 = system: SNB-78
UACC-257 = system: UACC-257
M19-MEL = system: M19-MEL
MCF7 = system: MCF7

Measured: GI50

OCc1cc2ccncc2c2c1[nH]c1ccccc12
inactive: A498 4.5 µM | DMS-273 4.04 µM | HL-60 4.84 µM | HOP-18 2.52 µM | HOP-92 12.1 µM | LXFL 529 4.58 µM | M14 13.2 µM | OVCAR-4 6.95 µM | OVCAR-5 3.95 µM | RXF 393 2.96 µM | SF-295 5.81 µM | SNB-78 13.2 µM | UACC-257 14.8 µM

CNC(=O)OCc1nc(SC)n(C)c1CO
inactive: A498 > 100 µM | DMS-273 > 100 µM | HL-60 > 100 µM | HOP-18 > 79.3 µM | HOP-92 > 100 µM | M19-MEL > 100 µM | MCF7 > 100 µM | OVCAR-4 > 100 µM | OVCAR-5 > 100 µM | RXF 393 > 100 µM | SF-295 > 100 µM | SNB-78 > 100 µM | UACC-257 > 100 µM

CC1=NN(C(=O)c2ccccc2)C(=O)C1/N=N/c1ccccc1C(=O)O (stereo unspecified)
inactive: A498 5.47 µM | DMS-273 3.05 µM | HL-60 3.53 µM | HOP-18 99.1 µM | HOP-92 4.11 µM | M19-MEL 5.92 µM | MCF7 3.86 µM | OVCAR-4 5.62 µM | OVCAR-5 > 73.1 µM | RXF 393 2.47 µM | SF-295 4.1 µM

CCOC(=O)/C=C(\C)c1ccc(C)cc1C
inactive: A498 > 100 µM | DMS-273 > 100 µM | HL-60 2.89 µM | HOP-18 45 µM | HOP-92 29.8 µM | LXFL 529 14.6 µM | M14 > 100 µM | OVCAR-4 > 100 µM | OVCAR-5 > 100 µM | RXF 393 14.4 µM | SF-295 > 100 µM | SNB-78 38.1 µM | UACC-257 > 100 µM

O=c1[nH]c2ccc([N+](=O)[O-])cc2nc1/C(=N/Nc1ccccc1)C(O)c1ccco1 (stereo unspecified)
inactive: DMS-273 42.4 µM | HL-60 25.2 µM | HOP-92 > 100 µM | LXFL 529 59.8 µM | M14 > 100 µM | M19-MEL 85.9 µM | OVCAR-4 66.2 µM | OVCAR-5 > 100 µM | RXF 393 52.8 µM | SF-295 83.4 µM | SNB-78 > 100 µM | UACC-257 > 100 µM

CCOC(=O)NC(=O)c1cn(C2CCCCC2)c(=O)n(C)c1=O
inactive: A498 > 100 µM | DMS-273 > 100 µM | HL-60 > 100 µM | HOP-18 > 100 µM | HOP-92 > 100 µM | LXFL 529 > 100 µM | M14 > 100 µM | M19-MEL > 100 µM | OVCAR-4 > 100 µM | OVCAR-5 > 100 µM | RXF 393 > 100 µM | SF-295 > 100 µM | SNB-78 > 100 µM | UACC-257 > 100 µM

Nc1nncc2c1ccn2C1OC(CO)C(O)C1O (stereo unspecified)
inactive: A498 > 100 µM | DMS-273 > 100 µM | HL-60 > 100 µM | HOP-18 > 100 µM | HOP-92 > 100 µM | LXFL 529 > 100 µM | M14 > 100 µM | M19-MEL > 100 µM | OVCAR-4 > 100 µM | OVCAR-5 > 100 µM | RXF 393 > 100 µM | SF-295 > 100 µM | SNB-78 > 100 µM | UACC-257 > 100 µM

Cc1c2cc[n+](C)cc2c(COC2OC(CO)C(O)C2O)c2c3ccccc3n(C)c12 (stereo unspecified)
inactive: A498 > 100 µM | DMS-273 > 89.9 µM | HL-60 > 100 µM | HOP-18 27.5 µM | HOP-92 77.6 µM | M19-MEL 65.5 µM | MCF7 > 100 µM | OVCAR-4 > 100 µM | OVCAR-5 > 100 µM | RXF 393 > 100 µM | SF-295 57 µM | SNB-78 83.9 µM | UACC-257 > 100 µM

CN(C)CCNC(=O)c1cccc2c1Nc1ccccc1S2
inactive: A498 10.6 µM | DMS-273 13.7 µM | HL-60 5 µM | HOP-18 11.9 µM | HOP-92 2.08 µM | M19-MEL 15.6 µM | MCF7 13 µM | OVCAR-4 13.4 µM | OVCAR-5 13.4 µM | RXF 393 9.35 µM | SF-295 14.5 µM | SNB-78 12.2 µM | UACC-257 13.7 µM
